Test results: patent publication US20230338391A1, “TREATMENT FOR DEPRESSION” (TAKEDA PHARMACEUTICAL COMPANY LIMITED, priority 2020, published 2023)
Read-outs that look alike come from different tables or passages of the source.

Test: Phase 1 single-rising dose (SRD, Part 1) plasma PK in healthy subjects
Type: in vivo, human
Details: for Vd/F / AUC(0-inf) / Cmax / Tmax / AUC(0-t): both sexes, human, plasma; for Tmax: po
Procedure: The study was designed to assess the safety, tolerability, PK, and PD of COMPOUND A. A total of 88 subjects were enrolled in 6 SRD and 5 SRD/MRD cohorts (n=8 per cohort). The study was composed of 2 parts.
In Part 1 of the study (SRD cohorts), a single oral tablet dose of COMPOUND A (0.3, 1, 3, 5, 9, or 18 mg) or matching placebo was administered on Day 1 followed by safety, tolerability, PK, and PD assessments. In each SRD cohort of 8 subjects (6 active: 2 placebo), sentinel dosing was used whereby 2 initial subjects (1 active: 1 placebo) were administered study drug to evaluate safety and tolerability before dosing in the remaining subjects (5 active: 1 placebo) after an interval of at least 24 hours. Dosing in the remaining 6 subjects from each cohort was staggered such that only 3 subjects were dosed in 1 day, with the last 3 subjects being dosed after an additional 24-hour interval. The data from each cohort were reviewed sequentially to ensure adequate safety and tolerability before administering the next dose level. Study drug was administered after an overnight fast of at least 10 hours. Subjects were confined in the study unit for 5 days, from Check-in on Day −1 until approximately 96 hours after dosing. Subjects in Cohorts 1 to 5 (0.3-9 mg) returned to the clinic on Days 6 and 7 and subjects in Cohort 6 (18 mg) returned on Days 6, 7 and 8 for additional PK blood sample collections. To allow for a preliminary assessment of the effect of food on the PK of COMPOUND A, subjects in SRD Cohort 3 (3 mg) returned to the clinic to receive study drug under fed conditions (standard high-fat meal, as defined by the Food and Drug Administration (“FDA”)), after the safety and tolerability of the higher dose (5 mg) under fasted conditions had been established.
For all cohorts in Parts 1 and 2, serial PK blood samples were collected pre- and post-dose on Day 1 to measure plasma concentrations of COMPOUND A and its metabolites. For all SRD/MRD cohorts in Part 2, urine samples were collected pre- and post-dose on Day 1 and post-dose on Day 18 to measure concentrations of COMPOUND A and its metabolites.
For Part 1 of the study, all 36 subjects who received COMPOUND A were included in the PK set. For Part 2 of the study, all 30 subjects who received COMPOUND A were included in the PK set.
Referring now to FIG. 2, mean plasma concentration-time profiles (linear and semilog scales) of COMPOUND A were determined following single oral administration of COMPOUND A.

[1] = single oral 0.3 mg, mean, N = 6

CC1=CN2CCS(=O)(=O)N=C2C(c2ccc(OC3CCCCC3)cc2)=N1 [COMPOUND A, 9-[4-(Cyclohexyloxy)phenyl]-7-methyl-3,4-dihydropyrazino[2,1-c][1,2,4]thiadiazine 2,2-dioxide]
Vd/F (oral, range across single dose levels, read-out: mean Vz/F): 95.1 to 133 L
AUC(0-inf) (oral, range across the 0.3 to 18 mg single dose range, read-out: mean AUC∞): 148 to 8880 ng·h/mL
Cmax (oral, range across the 0.3 to 18 mg single dose range, read-out: mean plasma Cmax): 3.63 to 126 ng/mL
Tmax (0.3 mg, single oral 0.3 mg, median, N = 6, read-out: tmax): 1.25 h
Tmax (1 mg, single oral 1 mg, median, N = 6, read-out: tmax): 2.5 h
Tmax (3 mg, single oral 3 mg, median, N = 6, read-out: tmax): 1.75 h
Tmax (5 mg, single oral 5 mg, median, N = 6, read-out: tmax): 2.75 h
Tmax (9 mg, single oral 9 mg, median, N = 6, read-out: tmax): 5.5 h
Tmax (18 mg, range across single oral doses 0.3, 1, 3, 5, 9, 18 mg, read-out: median tmax): 1.25 to 5.5 h
Tmax (18 mg, single oral 18 mg, median, N = 6, read-out: tmax): 5.05 h
AUC(0-t) [1]: 126 ng·h/mL
AUC(0-inf) (single oral 0.3 mg, mean, N = 6, read-out: AUC∞): 148 ng·h/mL
Cmax (single oral 0.3 mg, mean, N = 6, read-out: Cmax): 3.63 ng/mL
Vd/F (single oral 0.3 mg, mean, N = 6, read-out: Vz/F): 98.8 L
AUC(0-t) (single oral 1 mg, mean, N = 6): 565 ng·h/mL
AUC(0-inf) (single oral 1 mg, mean, N = 6, read-out: AUC∞): 642 ng·h/mL
Cmax (single oral 1 mg, mean, N = 6, read-out: Cmax): 10.3 ng/mL
Vd/F (single oral 1 mg, mean, N = 6, read-out: Vz/F): 95.1 L
AUC(0-t) (single oral 3 mg, mean, N = 6): 1340 ng·h/mL
AUC(0-inf) (single oral 3 mg, mean, N = 6, read-out: AUC∞): 1460 ng·h/mL
Cmax (single oral 3 mg, mean, N = 6, read-out: Cmax): 27.1 ng/mL
Vd/F (single oral 3 mg, mean, N = 6, read-out: Vz/F): 114 L
AUC(0-t) (single oral 5 mg, mean, N = 6): 2320 ng·h/mL
AUC(0-inf) (single oral 5 mg, mean, N = 6, read-out: AUC∞): 2650 ng·h/mL
Cmax (single oral 5 mg, mean, N = 6, read-out: Cmax): 45.3 ng/mL
Vd/F (single oral 5 mg, mean, N = 6, read-out: Vz/F): 115 L
AUC(0-t) (single oral 9 mg, mean, N = 6): 4490 ng·h/mL
AUC(0-inf) (single oral 9 mg, mean, N = 6, read-out: AUC∞): 5380 ng·h/mL
Cmax (single oral 9 mg, mean, N = 6, read-out: Cmax): 69.5 ng/mL
Vd/F (single oral 9 mg, mean, N = 6, read-out: Vz/F): 120 L
AUC(0-t) (single oral 18 mg, mean, N = 6): 8080 ng·h/mL
AUC(0-inf) (single oral 18 mg, mean, N = 6, read-out: AUC∞): 8880 ng·h/mL
Cmax (single oral 18 mg, mean, N = 6, read-out: Cmax): 126 ng/mL
Vd/F (single oral 18 mg, mean, N = 6, read-out: Vz/F): 133 L
CL/F [1]: 2.17 L/h
t1/2z [1]: 33.1 h
CL/F (single oral 1 mg, mean, N = 6): 1.79 L/h
t1/2z (single oral 1 mg, mean, N = 6): 41.3 h
CL/F (single oral 3 mg, mean, N = 6): 2.18 L/h
t1/2z (single oral 3 mg, mean, N = 6): 37.9 h
CL/F (single oral 5 mg, mean, N = 6): 2.08 L/h
t1/2z (single oral 5 mg, mean, N = 6): 42.5 h
CL/F (single oral 9 mg, mean, N = 6): 1.98 L/h
t1/2z (single oral 9 mg, mean, N = 6): 47.8 h
CL/F (single oral 18 mg, mean, N = 6): 2.29 L/h
t1/2z (single oral 18 mg, mean, N = 6): 44.1 h
